Assay results as given in patent US20250163104A1, “MACROCYCLIC IMMUNOMODULATORS” (priority 2021, published 2025).
pIC50: −log10 of the molar value. Where a SMILES comes first, the peptide text is derived from it. Bridges are numbered along the chain shown (N, C = ends). [ ]: non-standard residue; d: D form. The star is where a group is joined. Phe(4-COOH) = N[C@@H](Cc1ccc(C(=O)O)cc1)C(=O)O; Asp(3,3-Me2) = CC(C)(C(=O)O)[C@H](N)C(=O)O; Bip = N[C@@H](Cc1ccc(-c2ccccc2)cc1)C(=O)O; Phe(3-Me) = Cc1cccc(C[C@H](N)C(=O)O)c1; Val(3-OH) = CC(C)(O)[C@H](N)C(=O)O; hPhe = N[C@@H](CCc1ccccc1)C(=O)O; 4Pal = N[C@@H](Cc1ccncc1)C(=O)O; Cha = N[C@@H](CC1CCCCC1)C(=O)O; hSer = N[C@@H](CCO)C(=O)O; Carboxymethyl = O=C(O)C*; Orn = NCCC[C@H](N)C(=O)O; Dab = NCC[C@H](N)C(=O)O; Nva = CCC[C@H](N)C(=O)O; NHCH2CH2OMe = COCCN*

biological target: T1, human PD-1 / PD-L1-Ig binding on Jurkat cell line over-expressing human PD-1 (Jurkat-PD-1) (Homo sapiens, UniProt Q15116); assay: Jurkat-PD-1 Cell Binding High-Content Screening Assay (CBA); format: cell-based; conditions: Jurkat-PD-1 cells, PE-labeled PD-L1-Ig 20 nM final; read-out: Jurkat HPD1_PDL1 IC50
T1 construct: expressed in transfected cells; host or cells: Jurkat
Method in brief: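 Read-out: high-content imaging of PE-tagged PD-L1-Ig bound to Jurkat cells overexpressing human PD-1, after fixation with 4% paraformaldehyde and Hoechst 33342 nuclear staining. Ligand was used at 20 nM final for 1 hour, after a 2 h compound exposure at 37° C in serum-containing DMEM.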

T1 sequence (Q15116 25-288): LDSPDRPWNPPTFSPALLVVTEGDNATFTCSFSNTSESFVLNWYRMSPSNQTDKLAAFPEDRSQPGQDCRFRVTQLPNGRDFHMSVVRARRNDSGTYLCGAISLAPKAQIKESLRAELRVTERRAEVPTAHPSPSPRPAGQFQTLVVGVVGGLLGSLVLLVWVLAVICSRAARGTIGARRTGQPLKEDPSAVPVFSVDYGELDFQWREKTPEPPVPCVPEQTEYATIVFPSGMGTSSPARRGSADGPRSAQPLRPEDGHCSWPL

| Compound | pIC50 |
| --- | --- |
| Cc1cccc(C[C@@H]2NC(=O)[C@H](CC(=O)O)NC(=O)[C@H](Cc3ccc(OCC(=O)O)cc3)NC(=O)[C@H](CCN)NC(=O)CSC[C@@H](C(=O)N[C@@H](CCN)C(N)=O)NC(=O)[C@H](CO)NC(=O)[C@H](C(C)(C)C(=O)O)NC(=O)[C@H](CC3CCCCC3)NC(=O)[C@H](CCN)NC(=O)[C@@H](CC(C)C)NC(=O)[C@H](CCCN)NC(=O)[C@H](Cc3ccc(OCC(=O)O)cc3)NC(=O)[C@H](Cc3ccc(-c4ccccc4)cc3)NC(=O)[C@H](Cc3ccc(OCC(=O)O)cc3)NC2=O)c1 [Compound 2070] ({CH2CO}-[Dab]Y(Carboxymethyl)D[Phe(3-Me)]Y(Carboxymethyl)[Bip]Y(Carboxymethyl)[Orn][dL][Dab][Cha][Asp(3,3-Me2)]SC[Dab]-NH2; thioether N-14) | 7.77 |
| Cc1cccc(C[C@@H]2NC(=O)[C@H](CC(=O)O)NC(=O)[C@H](Cc3ccc(OCC(=O)O)cc3)NC(=O)[C@H](CCN)NC(=O)CSC[C@@H](C(=O)N[C@H](C(N)=O)C(C)(C)C(=O)O)NC(=O)[C@H](CO)NC(=O)[C@H](C(C)(C)O)NC(=O)[C@H](CC3CCCCC3)NC(=O)[C@H](CCN)NC(=O)[C@@H](CC(C)C)NC(=O)[C@H](CCCN)NC(=O)[C@H](Cc3ccc(OCC(=O)O)cc3)NC(=O)[C@H](Cc3ccc(-c4ccccc4)cc3)NC(=O)[C@H](Cc3ccc(OCC(=O)O)cc3)NC2=O)c1 [Compound 2071] ({CH2CO}-[Dab]Y(Carboxymethyl)D[Phe(3-Me)]Y(Carboxymethyl)[Bip]Y(Carboxymethyl)[Orn][dL][Dab][Cha][Val(3-OH)]SC[Asp(3,3-Me2)]-NH2; thioether N-14) | 6.83 |
| Cc1cccc(C[C@@H]2NC(=O)[C@H](CC(=O)O)NC(=O)[C@H](Cc3ccc(C(=O)O)cc3)NC(=O)[C@H](Cc3ccncc3)NC(=O)CSC[C@@H](C(=O)N[C@@H](CCN)C(N)=O)NC(=O)[C@H](CO)NC(=O)[C@H](C(C)(C)O)NC(=O)[C@H](CC3CCCCC3)NC(=O)[C@H](CCN)NC(=O)[C@@H](CC(C)C)NC(=O)[C@H](C(C)(C)C(=O)O)NC(=O)[C@H](Cc3ccc(OCC(=O)O)cc3)NC(=O)[C@H](Cc3ccc(-c4ccccc4)cc3)NC(=O)[C@H](Cc3ccc(OCC(=O)O)cc3)NC2=O)c1 [Compound 2072] ({CH2CO}-[4Pal][Phe(4-COOH)]D[Phe(3-Me)]Y(Carboxymethyl)[Bip]Y(Carboxymethyl)[Asp(3,3-Me2)][dL][Dab][Cha][Val(3-OH)]SC[Dab]-NH2; thioether N-14) | 7.71 |
| Cc1cccc(C[C@@H]2NC(=O)[C@H](CC(=O)O)NC(=O)[C@H](Cc3ccc(OCC(=O)O)cc3)NC(=O)[C@H](CCN)NC(=O)CSC[C@@H](C(=O)N[C@@H](CCN)C(N)=O)NC(=O)[C@H](CO)NC(=O)[C@H](C(C)(C)O)NC(=O)[C@H](CC3CCCCC3)NC(=O)[C@H](CCN)NC(=O)[C@@H](CC(C)C)NC(=O)[C@H](C(C)(C)C(=O)O)NC(=O)[C@H](Cc3ccc(OCC(=O)O)cc3)NC(=O)[C@H](Cc3ccc(-c4ccccc4)cc3)NC(=O)[C@H](Cc3ccc(OCC(=O)O)cc3)NC2=O)c1 [Compound 2073] ({CH2CO}-[Dab]Y(Carboxymethyl)D[Phe(3-Me)]Y(Carboxymethyl)[Bip]Y(Carboxymethyl)[Asp(3,3-Me2)][dL][Dab][Cha][Val(3-OH)]SC[Dab]-NH2; thioether N-14) | 7.65 |
| CCC[C@@H]1NC(=O)CSC[C@@H](C(=O)N[C@@H](CCN)C(=O)NCCOC)NC(=O)[C@H](CO)NC(=O)[C@H](C(C)(C)O)NC(=O)[C@H](CC2CCCCC2)NC(=O)[C@H](CCN)NC(=O)[C@@H](CC(C)C)NC(=O)[C@H](CCCN)NC(=O)[C@H](Cc2ccc(OCC(=O)O)cc2)NC(=O)[C@H](Cc2ccc(-c3ccccc3)cc2)NC(=O)[C@H](Cc2ccc(OCC(=O)O)cc2)NC(=O)[C@H](Cc2cccc(C)c2)NC(=O)[C@H](CC(=O)O)NC(=O)[C@H](Cc2ccc(OCC(=O)O)cc2)NC1=O [Compound 2074] ({CH2CO}-[Nva]Y(Carboxymethyl)D[Phe(3-Me)]Y(Carboxymethyl)[Bip]Y(Carboxymethyl)[Orn][dL][Dab][Cha][Val(3-OH)]SC[Dab]-NHCH2CH2OMe; thioether N-14) | 8.36 |
| COCCNC(=O)[C@H](CCN)NC(=O)[C@@H]1CSCC(=O)N[C@@H](CCOC)C(=O)N[C@@H](Cc2ccc(OCC(=O)O)cc2)C(=O)N[C@@H](CC(=O)O)C(=O)N[C@@H](Cc2cccc(C)c2)C(=O)N[C@@H](Cc2ccc(OCC(=O)O)cc2)C(=O)N[C@@H](Cc2ccc(-c3ccccc3)cc2)C(=O)N[C@@H](Cc2ccc(OCC(=O)O)cc2)C(=O)N[C@@H](CCCN)C(=O)N[C@H](CC(C)C)C(=O)N[C@@H](CCN)C(=O)N[C@@H](CC2CCCCC2)C(=O)N[C@@H](C(C)(C)O)C(=O)N[C@@H](CO)C(=O)N1 [Compound 2075] ({CH2CO}-[hSer](Me)Y(Carboxymethyl)D[Phe(3-Me)]Y(Carboxymethyl)[Bip]Y(Carboxymethyl)[Orn][dL][Dab][Cha][Val(3-OH)]SC[Dab]-NHCH2CH2OMe; thioether N-14) | 8.39 |
| COCCNC(=O)[C@H](CCN)NC(=O)[C@@H]1CSCC(=O)N[C@@H](Cc2ccncc2)C(=O)N[C@@H](Cc2ccc(C(=O)O)cc2)C(=O)N[C@@H](CC(=O)O)C(=O)N[C@@H](Cc2cccc(C)c2)C(=O)N[C@@H](Cc2ccc(OCC(=O)O)cc2)C(=O)N[C@@H](Cc2ccc(-c3ccccc3)cc2)C(=O)N[C@@H](Cc2ccc(OCC(=O)O)cc2)C(=O)N[C@@H](CCCN)C(=O)N[C@H](CC(C)C)C(=O)N[C@@H](CCN)C(=O)N[C@@H](CC2CCCCC2)C(=O)N[C@@H](C(C)(C)O)C(=O)N[C@@H](CO)C(=O)N1 [Compound 2076] ({CH2CO}-[4Pal][Phe(4-COOH)]D[Phe(3-Me)]Y(Carboxymethyl)[Bip]Y(Carboxymethyl)[Orn][dL][Dab][Cha][Val(3-OH)]SC[Dab]-NHCH2CH2OMe; thioether N-14) | 6.62 |
| COCCNC(=O)[C@H](CCN)NC(=O)[C@@H]1CSCC(=O)N[C@@H]([C@@H](C)O)C(=O)N[C@@H](Cc2ccc(C(=O)O)cc2)C(=O)N[C@@H](CC(=O)O)C(=O)N[C@@H](Cc2cccc(C)c2)C(=O)N[C@@H](Cc2ccc(OCC(=O)O)cc2)C(=O)N[C@@H](Cc2ccc(-c3ccccc3)cc2)C(=O)N[C@@H](Cc2ccc(OCC(=O)O)cc2)C(=O)N[C@@H](CCCN)C(=O)N[C@H](CC(C)C)C(=O)N[C@@H](CCN)C(=O)N[C@@H](CC2CCCCC2)C(=O)N[C@@H](C(C)(C)O)C(=O)N[C@@H](CO)C(=O)N1 [Compound 2077] ({CH2CO}-T[Phe(4-COOH)]D[Phe(3-Me)]Y(Carboxymethyl)[Bip]Y(Carboxymethyl)[Orn][dL][Dab][Cha][Val(3-OH)]SC[Dab]-NHCH2CH2OMe; thioether N-14) | 8.14 |
| COC[C@@H]1NC(=O)CSC[C@@H](C(=O)N[C@@H](CCN)C(N)=O)NC(=O)[C@H](CO)NC(=O)[C@H](C(C)(C)O)NC(=O)[C@H](CC2CCCCC2)NC(=O)[C@H](CCN)NC(=O)[C@@H](CC(C)C)NC(=O)[C@H](CCCN)NC(=O)[C@H](Cc2ccc(OCC(=O)O)cc2)NC(=O)[C@H](Cc2ccc(-c3ccccc3)cc2)NC(=O)[C@H](Cc2ccc(OCC(=O)O)cc2)NC(=O)[C@H](Cc2cccc(C)c2)NC(=O)[C@H](CC(=O)O)NC(=O)[C@H](Cc2ccc(C(=O)O)cc2)NC1=O [Compound 2078] ({CH2CO}-S(Me)[Phe(4-COOH)]D[Phe(3-Me)]Y(Carboxymethyl)[Bip]Y(Carboxymethyl)[Orn][dL][Dab][Cha][Val(3-OH)]SC[Dab]-NH2; thioether N-14) | 8.31 |
| COCC[C@@H]1NC(=O)CSC[C@@H](C(=O)N[C@@H](CCN)C(N)=O)NC(=O)[C@H](CO)NC(=O)[C@H](C(C)(C)O)NC(=O)[C@H](CC2CCCCC2)NC(=O)[C@H](CCN)NC(=O)[C@@H](CC(C)C)NC(=O)[C@H](CCCN)NC(=O)[C@H](Cc2ccc(OCC(=O)O)cc2)NC(=O)[C@H](Cc2ccc(-c3ccccc3)cc2)NC(=O)[C@H](Cc2ccc(OCC(=O)O)cc2)NC(=O)[C@H](Cc2cccc(C)c2)NC(=O)[C@H](CC(=O)O)NC(=O)[C@H](Cc2ccc(C(=O)O)cc2)NC1=O [Compound 2079] ({CH2CO}-[hSer](Me)[Phe(4-COOH)]D[Phe(3-Me)]Y(Carboxymethyl)[Bip]Y(Carboxymethyl)[Orn][dL][Dab][Cha][Val(3-OH)]SC[Dab]-NH2; thioether N-14) | 8.20 |
| CCC[C@@H]1NC(=O)CSC[C@@H](C(=O)N[C@@H](CCN)C(N)=O)NC(=O)[C@H](CO)NC(=O)[C@H](C(C)(C)O)NC(=O)[C@H](CC2CCCCC2)NC(=O)[C@H](CCN)NC(=O)[C@@H](CC(C)C)NC(=O)[C@H](CCCN)NC(=O)[C@H](Cc2ccc(OCC(=O)O)cc2)NC(=O)[C@H](Cc2ccc(-c3ccccc3)cc2)NC(=O)[C@H](Cc2ccc(OCC(=O)O)cc2)NC(=O)[C@H](Cc2cccc(C)c2)NC(=O)[C@H](CC(=O)O)NC(=O)[C@H](Cc2ccc(C(=O)O)cc2)NC1=O [Compound 2080] ({CH2CO}-[Nva][Phe(4-COOH)]D[Phe(3-Me)]Y(Carboxymethyl)[Bip]Y(Carboxymethyl)[Orn][dL][Dab][Cha][Val(3-OH)]SC[Dab]-NH2; thioether N-14) | 8.38 |
| Cc1cccc(C[C@@H]2NC(=O)[C@H](CC(=O)O)NC(=O)[C@H](Cc3ccc(C(=O)O)cc3)NC(=O)[C@H](CCc3ccccc3)NC(=O)CSC[C@@H](C(=O)N[C@@H](CCN)C(N)=O)NC(=O)[C@H](CO)NC(=O)[C@H](C(C)(C)O)NC(=O)[C@H](CC3CCCCC3)NC(=O)[C@H](CCN)NC(=O)[C@@H](CC(C)C)NC(=O)[C@H](CCCN)NC(=O)[C@H](Cc3ccc(OCC(=O)O)cc3)NC(=O)[C@H](Cc3ccc(-c4ccccc4)cc3)NC(=O)[C@H](Cc3ccc(OCC(=O)O)cc3)NC2=O)c1 [Compound 2081] ({CH2CO}-[hPhe][Phe(4-COOH)]D[Phe(3-Me)]Y(Carboxymethyl)[Bip]Y(Carboxymethyl)[Orn][dL][Dab][Cha][Val(3-OH)]SC[Dab]-NH2; thioether N-14) | 6.95 |
